From patent publication US11708376B2 (VIRGINIA TECH INTELLECTUAL PROPERTIES, INC., priority 2018, dated 2023) come the findings set out here.

Each structure is given as a SMILES string.

The first test relates to whole cells (NMuLi, C2Cl2, and L6 cells, isolated cardiomyocytes, human primary fibroblasts). Put plainly: Oxygen consumption rate (OCR) in whole cells, Seahorse XF-24 Flux Analyzer. It counts as cell-based. The settings on record: cell type for Table 1 not stated, read-out: OCR Activity (increase in OCR), binned EC50. On the procedure: Biological activities of the compounds synthesized is determined by determining increase in oxygen consumption rate (OCR).
Oxygen consumption rate (OCR) in whole cells is measured in general accordance with the method of Kenwood B M et al. (Mol. Met. (2014) 3: 114-123).
OCR is measured using a Seahorse XF-24 Flux Analyzer (Seahorse Biosciences, North Billerica, Mass.). NMuLi, C2Cl2, and L6 cells are seeded in a Seahorse 24-well tissue culture plate at a density of 3.5×10^4 cells/well, isolated cardiomyocytes at a density of 4×10^4 cells/well, and human primary fibroblasts at a density of 1.1×10^4 cells/well. The cells are then allowed to adhere for 24 h. Prior to the assay, the media is changed to unbuffered DMEM containing pyruvate and glutamine (Gibco #12800-017, pH=7.4 at 37° C.) and the cells are equilibrated for 30 mins at 37° C. Compounds are injected during the assay and OCR is measured using 2 min measurement periods.
2-3 wells are used per condition and averaged over three plates (n=6-9). Statistical significance is determined by two-way ANOVA with Bonfenoni's posttest.
Activities are reported as binned EC50 values: A=5 μM or less; B=>5 to 20 μM; C=over 20 μM; NA=no effect.
With `COc1nc2[nH]c(C(F)(F)F)nc2nc1Nc1ccc(OC(F)(F)F)cc1F` [Compound 2-21, 6-methoxy-N-(2-fluoro-4-(trifluoromethoxy)phenyl)-2-(trifluoromethyl)-1H-imidazo[4,5-b]pyrazin-5-amine], the EC50 is no more than 5 µM. The same measure, in the same setting: to `COc1nc2[nH]c(C(F)(F)F)nc2nc1Nc1ccc(OC(F)(F)F)c(Br)c1` [Compound 2-44, N-(3-bromo-4-(trifluoromethoxy)phenyl)-6-methoxy-2-(trifluoromethyl)-1H-imidazo[4,5-b]pyrazin-5-amine] belongs greater than 20 µM; to `COc1nc2[nH]c(C(F)(F)F)nc2nc1Nc1ccc(OC(F)(F)F)c(F)c1` [Compound 2-13, 6-methoxy-N-(3-fluoro-4-(trifluoromethoxy)phenyl)-2-(trifluoromethyl)-1H-imidazo[4,5-b]pyrazin-5-amine], 5 to 20 µM; to `CCCCOc1nc2[nH]c(C(F)(F)F)nc2nc1Nc1ccc(OC(F)(F)F)cc1` [Compound 2-35, 6-butoxy-N-(4-(trifluoromethoxy)phenyl)-2-(trifluoromethyl)-1H-imidazo[4,5-b]pyrazin-5-amine], greater than 20 µM. Same read-out and setting: to `COc1nc2[nH]c(C(F)(F)F)nc2nc1Nc1cccc(C(F)(F)F)c1` [Compound 2-32, 6-methoxy-N-(3-(trifluoromethyl)phenyl)-2-(trifluoromethyl)-1H-imidazo[4,5-b]pyrazin-5-amine] belongs 5 to 20 µM; to `COc1nc2[nH]c(C(F)(F)F)nc2nc1Nc1ccc(C(F)(F)F)cc1` [Compound 2-22, 6-methoxy-N-(4-(trifluoromethyl)phenyl)-2-(trifluoromethyl)-1H-imidazo[4,5-b]pyrazin-5-amine], 5 to 20 µM; to `COc1nc2[nH]c(C(F)(F)F)nc2nc1Nc1ccc(OC(F)(F)F)cc1` [Compound 2-1, 6-methoxy-N-(4-(trifluoromethoxy)phenyl)-2-(trifluoromethyl)-1H-imidazo[4,5-b]pyrazin-5-amine], greater than 20 µM.

As for `COc1nc2[nH]c(C(F)(F)F)nc2cc1Nc1cc(C(F)(F)F)cc(C(F)(F)F)c1` [Compound 2-72, N-(3,5-bis(trifluoromethyl)phenyl)-5-methoxy-2-(trifluoromethyl)-3H-imidazo[4,5-b]pyridin-6-amine], the EC50 was 5 to 20 µM.

For `Oc1nc2[nH]c(C(F)(F)F)nc2nc1Nc1cccc(C(F)(F)F)c1F` [Compound 2-54, 5-((2-fluoro-3-(trifluoromethyl)phenyl)amino)-2-(trifluoromethyl)-1H-imidazo[4,5-b]pyrazin-6-ol], the EC50 was greater than 20 µM.

As for `COc1nc2[nH]c(C(F)(F)F)nc2nc1Nc1ccc(I)cc1` [Compound 2-30, 6-methoxy-N-(4-iodophenyl)-2-(trifluoromethyl)-1H-imidazo[4,5-b]pyrazin-5-amine], the concentration for a half-maximal effect (EC50) is 5 to 20 µM. Same read-out and setting: to `COc1nc2[nH]c(C(F)(F)F)nc2nc1Nc1cccc(C(F)(F)F)c1F` [Compound 2-6, 6-methoxy-N-(2-fluoro-3-(trifluoromethyl)phenyl)-2-(trifluoromethyl)-1H-imidazo[4,5-b]pyrazin-5-amine] belongs no more than 5 µM; to `COc1nc2[nH]c(C(F)(F)F)nc2nc1Nc1ccc(C(C)(C)C)cc1` [Compound 2-19, 6-methoxy-N-(4-(tert-butyl)phenyl)-2-(trifluoromethyl)-1H-imidazo[4,5-b]pyrazin-5-amine], 5 to 20 µM. The same measure, in the same setting: under `COc1nc2[nH]c(C(F)(F)F)nc2nc1Nc1cc(C(F)(F)F)ccc1C` [Compound 2-5, 6-methoxy-N-(2-methyl-5-(trifluoromethyl)phenyl)-2-(trifluoromethyl)-1H-imidazo[4,5-b]pyrazin-5-amine] stands 5 to 20 µM; under `COc1ccc(Nc2cc3nc(C(F)(F)F)[nH]c3nc2OC)cc1` [Compound 2-69, 5-methoxy-N-(4-methoxyphenyl)-2-(trifluoromethyl)-3H-imidazo[4,5-b]pyridin-6-amine], no more than 5 µM; under `Oc1nc2nc(-c3cccc(F)c3)oc2nc1Nc1ccccc1F` [Compound 4-3, 2-(3-fluorophenyl)-6-((2-fluorophenyl)amino)oxazolo[4,5-b]pyrazin-5-ol], 5 to 20 µM. On the same count and under the same terms, to `COc1nc2[nH]c(C(F)(F)F)nc2nc1Nc1ccccc1C(F)(F)F` [Compound 2-17] belongs no more than 5 µM. Take `COc1nc2[nH]c(C(F)(F)F)nc2nc1Nc1cc(F)cc(F)c1` [Compound 2-15, 6-methoxy-N-(3,5-difluorophenyl)-2-(trifluoromethyl)-1H-imidazo[4,5-b]pyrazin-5-amine]: the EC50 was greater than 20 µM. Same read-out and setting: under `COc1nc2[nH]c(C(F)(F)F)nc2nc1Nc1ccc(C(C)(C)C)cc1F` [Compound 2-33, 6-methoxy-N-(2-fluoro-4-(tert-butyl)phenyl)-2-(trifluoromethyl)-1H-imidazo[4,5-b]pyrazin-5-amine] stands 5 to 20 µM. Same read-out and setting: to `COc1nc2[nH]c(C(F)(F)F)nc2nc1Nc1ccc(Cl)cc1` [Compound 2-26, 6-methoxy-N-(4-chlorophenyl)-2-(trifluoromethyl)-1H-imidazo[4,5-b]pyrazin-5-amine] belongs 5 to 20 µM; to `CCCOc1nc2[nH]c(C(F)(F)F)nc2nc1Nc1ccc(OC(F)(F)F)cc1F` [Compound 2-39, 6-propoxy-N-(2-fluoro-4-(trifluoromethoxy)phenyl)-2-(trifluoromethyl)-1H-imidazo[4,5-b]pyrazin-5-amine], 5 to 20 µM.

Take `COc1nc2nc(C(F)(F)F)[nH]c2cc1Nc1ccc(OC(F)(F)F)cc1F` [Compound 2-66, N-(2-fluoro-4-(trifluoromethoxy)phenyl)-5-methoxy-2-(trifluoromethyl)-1H-imidazo[4,5-b]pyridin-6-amine]: the EC50 was no more than 5 µM. Consider `COc1nc2[nH]c(C(F)(F)F)nc2nc1Nc1ccc(OC(F)(F)F)cc1Cl` [Compound 2-42, N-(2-chloro-4-(trifluoromethoxy)phenyl)-6-methoxy-2-(trifluoromethyl)-1H-imidazo[4,5-b]pyrazin-5-amine], for which the EC50 lay within 5 to 20 µM. In the case of `COc1nc2[nH]c(C(F)(F)F)nc2nc1Nc1ccc(C(F)(F)F)c(F)c1` [Compound 2-23, 6-methoxy-N-(3-fluoro-4-(trifluoromethyl)phenyl)-2-(trifluoromethyl)-1H-imidazo[4,5-b]pyrazin-5-amine], the EC50 is greater than 20 µM. In the case of `COc1nc2[nH]c(C(F)(F)F)nc2nc1Nc1cccc(OC(F)(F)F)c1` [Compound 2-4, 6-methoxy-N-(3-(trifluoromethoxy)phenyl)-2-(trifluoromethyl)-1H-imidazo[4,5-b]pyrazin-5-amine], the concentration giving a half-maximal response (EC50) was 5 to 20 µM.

Consider `COc1nc2[nH]c(C(F)(F)F)nc2nc1Nc1cccc(F)c1F` [Compound 2-16, 6-methoxy-N-(2,3-difluorophenyl)-2-(trifluoromethyl)-1H-imidazo[4,5-b]pyrazin-5-amine], for which the 50% effective concentration (EC50) lay within 5 to 20 µM. The same measure, in the same setting: under `FC(F)(F)COc1nc2[nH]c(C(F)(F)F)nc2nc1Nc1ccc(OC(F)(F)F)cc1` [Compound 2-36, 6-(2,2,2-trifluoroethoxy)-N-(4-(trifluoromethoxy)phenyl)-2-(trifluoromethyl)-1H-imidazo[4,5-b]pyrazin-5-amine] stands no more than 5 µM; under `COc1nc2nc(C(F)(F)F)[nH]c2cc1Nc1ccccc1F` [Compound 2-61, N-(2-fluorophenyl)-5-methoxy-2-(trifluoromethyl)-1H-imidazo[4,5-b]pyridin-6-amine], greater than 20 µM. The same measure, in the same setting: to `COc1nc2[nH]c(C(F)(F)F)nc2nc1Nc1ccc(C(F)(F)F)cc1F` [Compound 2-14, 6-methoxy-N-(2-fluoro-4-(trifluoromethyl)phenyl)-2-(trifluoromethyl)-1H-imidazo[4,5-b]pyrazin-5-amine] belongs no more than 5 µM; to `COc1nc2[nH]c(C(F)(F)F)nc2nc1Nc1cc(C(F)(F)F)cc(C(F)(F)F)c1` [Compound 2-8, 6-methoxy-(3,5-bis(trifluoromethyl)phenyl)-2-(trifluoromethyl)-1H-imidazo[4,5-b]pyrazin-5-amine], 5 to 20 µM; to `COc1nc2[nH]c(C(F)(F)F)nc2cc1Nc1cccc(F)c1F` [Compound 2-68, N-(2,3-Difluorophenyl)-5-methoxy-2-(trifluoromethyl)-3H-imidazo[4,5-b]pyridin-6-amine], 5 to 20 µM. For `Fc1ccccc1Oc1nc2nc(C(F)(F)F)[nH]c2nc1Nc1ccc(C(F)(F)F)cc1` [Compound 2-46, 5-(2-fluorophenoxy)-2-(trifluoromethyl)-N-(4-(trifluoromethyl)phenyl)-1H-imidazo[4,5-b]pyrazin-6-amine], the EC50 fell in the range of 5 to 20 µM.

Another test deals with Male C57BL/6J mice on western diet. Briefly: Diet induced obesity mouse study. The following applies: WD containing 2-21, ~40 mg/kg/day, after 28 days of WD. It counts as in vivo. The source says: FIG. 1. Diet induced obesity reversal data, for mice given a regular chow diet, a Western diet, or a Western diet plus compound 2-21. FIG. 1A, Body mass versus time; FIG. 1B, fat mass (measured by EchoMRI) versus time; FIG. 1C, food intake (last 14 days) versus time.
Male C57BL/6J mice aged 3 months were assigned to either normal chow diet (Chow, n=5) or western diet (WD, n=10) for 28 days. After 28 days half of the WD group were switched to WD containing compound 2-21 at a concentration resulting in consumption of ˜40 mg/kg/day 1-112 (2-21 40 mpk). Body mass (A), fat mass (measured by EchoMRI (B)), and food intake (C. for the final 14 days) were recorded as indicated.
As to `COc1nc2[nH]c(C(F)(F)F)nc2nc1Nc1ccc(OC(F)(F)F)cc1F` [Compound 2-21, 6-methoxy-N-(2-fluoro-4-(trifluoromethoxy)phenyl)-2-(trifluoromethyl)-1H-imidazo[4,5-b]pyrazin-5-amine], the Body mass entry is “lost body weight”; the “Fat mass (measured by EchoMRI)” value was “lost body weight and fat mass”.

The same test, now with this note: WD containing 2-21, ~40 mg/kg/day; final 14 days.
Turning to `COc1nc2[nH]c(C(F)(F)F)nc2nc1Nc1ccc(OC(F)(F)F)cc1F` [Compound 2-21, 6-methoxy-N-(2-fluoro-4-(trifluoromethoxy)phenyl)-2-(trifluoromethyl)-1H-imidazo[4,5-b]pyrazin-5-amine], the Food intake entry is listed as “without a significant change in food intake”.

One may read the EC50 as the midpoint of the concentration-response curve.
